Data reported in patent publication US10952961B2, “Implants and constructs including hollow fibers” (priority 2015, dated 2021).

Key:
[1] = Diffusivity of example drug molecules in water and in broad membrane pores; assay type: physicochemical; conditions: diffusivity within broad-pore membrane (HFHHP); unit not printed in this column, D is in cm^2/s
Excerpt: Assuming that the pore diameter essentially exceeds the molecule dimension, which is necessary for drug release to occur in any of the modes of drug release, Dm can be presented as product of three multipliers: diffusivity in water D, membrane porosity ε and tortuosity t0; Dm=Dεt0^−1. The maximal porosity is about 0.5. Taking into account the tortuosity t0=2, Dm˜0.25D. Vl has to be replaced by local interstitial velocity Vint. In turn, Vint can be specified as Vn(LB), when the condition 2Rlb>>Rf is valid and the fabric is placed at a small distance from LB. […] As to lm, having its value be small is desirable for the diffusion-dominated case.
[formula] This yields, E=Pe^0.5. This equation estimate E from below, i.e., the real E is essentially larger. A larger Pe means a larger role of convection in comparison with diffusion. […] But the derived equation quantifies this observation. The diffusivity D depends on the water viscosity η and on the macromolecule radius r. This dependence is described by the Stokes-Einstein equation:
[formula] where k is the Boltzman constant, T is absolute temperature. r increases with molecular weight (MW) and 100<MW<500 g/mole. This is not true for proteins and larger molecules.
With respect to broad pores of membrane in case of HFHHP, Dm≅εt0^−1D˜0.25D.

[2] = diffusivity in water; cited from earlier work
[3] = tested on: Pseudomonas aeruginosa PAO1 Xen41; experiment: Zone of inhibition (modified Kirby-Bauer) of drug-loaded hollow fibers; assay type: cell-based; conditions: drug-loaded polypropylene hollow fibers (saturated solution)
Description: (§1) To assess the antimicrobial efficacy of drug loaded hollow fibers, we used a modified Kirby-Bauer assay where a zone of inhibition of bacterial growth was measured on a solid agar plate as is normally done in the field of microbiology. This model was used since it allowed us to capture the real time drug release from the hollow fibers and at the same time to represent a model of drug release into a soft tissue. […] Vancomycin was chosen for proof of principle with the hollow fibers devices because this antibiotic has precedent in being commonly used to combat S. aureus infection in orthopedic joint arthroplasties, where locally high concentrations are delivered by elution from both non-absorbable (polymethyl methacrylate, PMMA) and absorbable mineral cements. Ciprofloxacin was used since it is a broad spectrum antibiotic used to target Gram negative pathogens such as P. aeruginosa. In addition, water soluble fluorescein sodium was used as a model drug to assess the release of a hydrophilic water-soluble agent from the hollow fiber drug delivery system. All reagents were purchased from Sigma-Aldrich. P. aeruginosa and S. aureus are biofilm-forming pathogens commonly isolated from infected meshes and sutures, and the strains we have selected have been transformed with bioluminescent genes so that live biofilm development and activity can be tracked in real time using a photon counting camera (Xenogen IVIS imaging system, Alameda, Calif.).
(§2) A lawn of bacteria was spread out onto an LB (Luria broth) agar plate. The plate was incubated at 5% CO2 at 37° C. for 18 hours for the first challenge. The fibers were then aseptically removed from the original plate and placed on a fresh lawn of bacteria on a new plate for the second challenge and incubated as before. Drug-free hollow fibers rinsed with isopropanol alone were used as controls. Experiments were repeated in triplicate. […] The fibers were then placed on a fresh plate and re-challenged. […]

[4] = room temperature; cited from earlier work
[5] = Saturated drug solutions in normal saline used to fill hollow fibers; assay type: physicochemical
Description: Pressure was applied on the syringe plunger until liquid drops were visibly seen to form at the open end of each of the hollow fibers.

[6] = tested on: Staphylococcus aureus 16MRSA Xen30; experiment: Zone of inhibition (modified Kirby-Bauer) of drug-loaded hollow fibers; assay type: cell-based
Description: as §1, §2

Cn1c(=O)c2c(ncn2C)n(C)c1=O [Caffeine]
Dm = 0.25 D [1]: 1.5 × 10^−6 | D (cm^2/s) Aqueous [2]: 4.9 × 10^−6 cm^2/s

O=C(O)c1cn(C2CC2)c2cc(N3CCNCC3)c(F)cc2c1=O [ciprofloxacin]
challenges over which a zone of inhibition was achieved [3]: one challenge

CO[C@H]1/C=C/O[C@@]2(C)Oc3c(C)c(O)c4c(O)c(c(/C=N/N5CCN(C)CC5)c(O)c4c3C2=O)NC(=O)/C(C)=C\C=C\[C@H](C)[C@H](O)[C@@H](C)[C@@H](O)[C@@H](C)[C@H](OC(C)=O)[C@@H]1C [rifampicin]
solubility in methanol [4]: at least 50 milligrams/milliliter

CN[C@H](CC(C)C)C(=O)N[C@H]1C(=O)N[C@@H](CC(N)=O)C(=O)N[C@H]2C(=O)N[C@H]3C(=O)N[C@H](C(=O)N[C@H](C(=O)O)c4cc(O)cc(O)c4-c4cc3ccc4O)[C@H](O)c3ccc(c(Cl)c3)Oc3cc2cc(c3O[C@@H]2O[C@H](CO)[C@@H](O)[C@H](O)[C@H]2O[C@H]2C[C@](C)(N)[C@H](O)[C@H](C)O2)Oc2ccc(cc2Cl)[C@H]1O [vancomycin]
concentration of saturated solution [5]: 100000 µg/mL | period over which a zone of inhibition was achieved ([6]; drug-loaded polypropylene hollow fibers (saturated solution), repeated challenges on fresh lawns): 2 days | activity on the second challenge ([6]; fiber moved to a fresh plate and re-challenged): showed activity

Insulin
Dm = 0.25 D [1]: 2.5 × 10^−7 | D (cm^2/s) Aqueous [2]: 8.3 × 10^−7 cm^2/s
